According to DBAASP:
Converted amounts (≈) assume the structure as drawn. “And” between values parts separate entries of the source, which are not always exact repeats. Equal entries are not always repeated.

Legend:
Test in all cases: ≥ marks a high value that may be exact or a test limit, other limits are often not marked, values filed in µg/mL are converted to µM
[1] = tested on: Staphylococcus aureus JE2
[2] = tested on: Cryptococcus neoformans var. grubii H99
[3] = tested on: Pseudomonas aeruginosa ATCC 27853
[4] = tested on: Staphylococcus aureus ATCC 43300
[5] = tested on: Klebsiella pneumoniae ATCC 700603
[6] = tested on: Escherichia coli K-12
[7] = tested on: Acinetobacter baumannii ATCC 19606
[8] = tested on: Candida albicans ATCC 90028
[9] = tested on: Escherichia coli ATCC 25922
[10] = tested on: Aspergillus fumigatus
[11] = tested on: Bacillus cereus
[12] = tested on: Candida parapsilosis ATCC 22019
[13] = tested on: Pseudomonas aeruginosa ATCC BAA-427
[14] = tested on: Sporothrix schenckii
[15] = tested on: Escherichia coli ATCC 9637
[16] = tested on: Staphylococcus aureus ATCC 25923
[17] = tested on: Trichophyton mentagrophytes
[18] = tested on: Klebsiella pneumoniae ATCC 27736
[19] = tested on: Vibrio cholerae
[20] = tested on: Bacillus subtilis MTCC 14416
[21] = tested on: Escherichia coli MG1655
[22] = tested on: Staphylococcus aureus MTCC 9542
[23] = tested on: Enterococcus faecalis ATCC 29212
[24] = tested on: Bacillus subtilis ATCC 6633
[25] = tested on: Staphylococcus aureus ATCC 9144
[26] = tested on: Escherichia coli ATCC 10536
[27] = tested on: Bacillus megaterium NRRL B-4272
[28] = tested on: Staphylococcus aureus ATCC 29213
[29] = tested on: Bacillus cereus ATCC 14579
[30] = tested on: Bacillus licheniformis ATCC 14580
[31] = tested on: Bacillus amyloliquefaciens ATCC 23842
[32] = tested on: Pseudomonas aeruginosa PAO1
[33] = tested on: Salmonella enterica ATCC H9812
[34] = tested on: Enterococcus faecium 5F-10
[35] = tested on: Enterococcus faecalis 1F-1
[36] = tested on: Bacillus subtilis ATCC 6051
[37] = tested on: Proteus mirabilis ATCC 35659
[38] = tested on: Escherichia coli DH5alpha
[39] = tested on: Staphylococcus epidermidis
[40] = tested on: Staphylococcus aureus
[41] = tested on: Staphylococcus aureus NBRC 13276
[42] = tested on: Pseudomonas aeruginosa NBRC 13275
[43] = tested on: Salmonella enterica subsp. enterica NBRC 100797
[44] = tested on: Escherichia coli NBRC 3972
[45] = tested on: Pseudomonas aeruginosa ATCC BAA-2111
[46] = tested on: Klebsiella pneumoniae NBRC 3512
[47] = tested on: Proteus vulgaris NBRC 3045
[48] = tested on: Staphylococcus epidermidis ATCC 12228
[49] = tested on: Trichophyton rubrum ATCC 28189

CC[C@H](C)[C@H](NC(=O)[C@@H](NC(=O)[C@H](CO)NC(=O)[C@H](C)NC(=O)[C@@H](NC(=O)[C@H](CCCN=C(N)N)NC(=O)[C@H](CCCN=C(N)N)NC(=O)[C@@H](NC(=O)[C@@H](NC(=O)[C@H](CC(=O)O)NC(=O)[C@H](Cc1ccccc1)NC(=O)[C@H](CC(C)C)NC(=O)CN)C(C)C)[C@@H](C)CC)C(C)C)C(C)C)C(=O)NCC(=O)NCC(=O)N[C@@H](CC(C)C)C(=O)O [GLFDVIRRVASVIGGL]
MIC [1]: 9.57 µM (≈ 16 µg/mL) | MIC [2]: 9.57 µM (≈ 16 µg/mL) | MIC [3]: > 19.1 µM | MIC [4]: 9.57 µM (≈ 16 µg/mL) | MIC [5]: > 19.1 µM | MIC [6]: 19.1 µM (≈ 32 µg/mL) | MIC [7]: 19.1 µM (≈ 32 µg/mL) | MIC [8]: 9.57 µM (≈ 16 µg/mL) | MIC [9]: 19.1 µM (≈ 32 µg/mL)

CC(C)C[C@H](NC(=O)[C@H](CC(C)C)NC(=O)[C@H](CCCN=C(N)N)NC(=O)[C@H](CCCN=C(N)N)NC(=O)[C@H](CC(C)C)NC(=O)[C@H](Cc1c[nH]c2ccccc12)NC(=O)[C@H](CCCN=C(N)N)NC(=O)[C@H](CC(C)C)NC(=O)[C@H](CC(C)C)NC(=O)[C@H](CCCN=C(N)N)NC(=O)[C@H](CCCN=C(N)N)NC(=O)[C@@H](N)CC(C)C)C(=O)N[C@@H](CCCN=C(N)N)C(=O)N[C@@H](CCCN=C(N)N)C(=O)O [LRRLLRWLRRLLRR]
MIC [10]: 3.16 µM (≈ 6.25 µg/mL) | MIC [11]: 1.59 µM (≈ 3.15 µg/mL) | MIC [12]: 3.16 µM (≈ 6.25 µg/mL) | MIC [13]: 12.6 µM (≈ 25 µg/mL) | MIC [14]: 1.59 µM (≈ 3.15 µg/mL) | MIC [15]: 12.6 µM (≈ 25 µg/mL) | MIC [16]: 0.789 µM (≈ 1.56 µg/mL) | MIC [17]: 3.16 µM (≈ 6.25 µg/mL) | MIC [18]: 1.59 µM (≈ 3.15 µg/mL)

CC[C@H](C)[C@@H]1NC(=O)[C@H](CCCCN)NC(=O)[C@@H](NC(=O)[C@H](CC(C)C)NC(=O)[C@@H](NC(=O)[C@H](CCC(N)=O)NC(=O)[C@@H]2CCCN2C(=O)[C@H](CC(C)C)NC(=O)[C@H](Cc2ccccc2)NC(=O)[C@H](CC(N)=O)NC(=O)[C@H](C)NC(=O)[C@H](C)NC(=O)[C@H](CC(C)C)NC(=O)CNC(=O)[C@H](C)NC(=O)[C@@H](NC(=O)[C@@H](N)CCCN=C(N)N)[C@@H](C)CC)[C@@H](C)CC)CSSC[C@@H](C(N)=O)NC(=O)[C@H](CCCCN)NC(=O)[C@H](CCCN=C(N)N)NC(=O)[C@H](C)NC1=O [RIAGLAANFLPQILCKIARKC]
MIC [19]: 5.44 µM (≈ 12.5 µg/mL) | MIC [20]: 21.7 µM (≈ 49.9 µg/mL) | MIC [3]: > 43.5 µM | MIC [21]: 10.9 µM (≈ 25 µg/mL) | MIC [22]: 10.9 µM (≈ 25 µg/mL) | MIC [4]: 10.9 µM (≈ 25 µg/mL) | MIC [23]: 21.7 µM (≈ 49.9 µg/mL)

CC[C@H](C)[C@H](NC(=O)[C@H](Cc1ccccc1)NC(=O)[C@H](CCCCN)NC(=O)[C@H](CCCCN)NC(=O)[C@H](Cc1ccccc1)NC(=O)[C@H](CO)NC(=O)[C@H](Cc1cnc[nH]1)NC(=O)[C@H](CC(C)C)NC(=O)[C@H](C)NC(=O)[C@H](CCCCN)NC(=O)CNC(=O)CNC(=O)CN)C(=O)N[C@@H](CCCCN)C(=O)N[C@@H](C)C(=O)N[C@@H](Cc1ccccc1)C(=O)N[C@H](C(=O)NCC(=O)N[C@@H](CCC(=O)O)C(=O)N[C@H](C(=O)N[C@@H](CCSC)C(=O)N[C@@H](CC(N)=O)C(=O)N[C@@H](CO)C(N)=O)[C@@H](C)CC)C(C)C [GGGKALHSFKKFIKAFVGEIMNS]
MIC [24]: 10 µM (≈ 24.7 µg/mL) | MIC [25]: ≥ 40 µM | MIC [26]: 5 µM (≈ 12.3 µg/mL) | MIC [27]: 12 µM (≈ 29.6 µg/mL)

CC(C)C[C@H](NC(=O)[C@H](CC(C)C)NC(=O)[C@@H](N)CCC(=O)O)C(=O)N[C@@H](CO)C(=O)N[C@@H](CCCN=C(N)N)C(=O)N[C@H](C(=O)O)C(C)C [ELLSRV]
MIC [28]: > 179 µM | MIC [29]: ≥ 179 µM | MIC [30]: ≥ 179 µM | MIC [31]: ≥ 179 µM | MIC [32]: > 179 µM | MIC [33]: ≥ 89.4 µM | MIC [34]: ≥ 179 µM | MIC [35]: ≥ 179 µM | MIC [36]: ≥ 179 µM | MIC [37]: ≥ 179 µM | MIC [9]: 89.4 µM (≈ 64 µg/mL)

CC(C)C[C@H](NC(=O)[C@H](CCCCN)NC(=O)CNC(=O)[C@H](C)NC(=O)[C@H](CCCCN)NC(=O)[C@H](CCCCN)NC(=O)[C@H](CC(C)C)NC(=O)[C@H](CC(C)C)NC(=O)[C@H](CCCCN)NC(=O)CNC(=O)[C@H](C)NC(=O)[C@H](CCCCN)NC(=O)[C@H](CCCCN)NC(=O)[C@H](CC(C)C)NC(=O)[C@H](CC(C)C)NC(=O)[C@@H](N)CCCCN)C(=O)N[C@@H](CC(C)C)C(=O)N[C@@H](CCCCN)C(=O)N[C@@H](CCCCN)C(=O)N[C@@H](C)C(=O)NCC(N)=O [KLLKKAGKLLKKAGKLLKKAG]
MIC [38]: 3.12 µM and 3.1 µM | MIC [39]: 1.56 µM (≈ 3.48 µg/mL) | MIC [40]: 12.5 µM (≈ 27.9 µg/mL) | MIC [41]: 5.59 µM (≈ 12.5 µg/mL) | MIC [42]: 1.56 µM and 0.716 µM | MIC [43]: 1.6 µM (≈ 3.57 µg/mL) | MIC [44]: 3.12 µM and 3.1 µM | MIC [45]: 1.39 µM (≈ 3.1 µg/mL) | MIC [46]: 0.716 µM (≈ 1.6 µg/mL) | MIC [47]: ≥ 100 µM

CC[C@H](C)[C@H](NC(=O)[C@H](Cc1c[nH]c2ccccc12)NC(=O)[C@H](CCCCN)NC(=O)[C@H](Cc1cnc[nH]1)NC(=O)[C@H](Cc1ccccc1)NC(=O)[C@H](CCC(=O)O)NC(=O)[C@H](CCCN=C(N)N)NC(=O)[C@H](CC(C)C)NC(=O)[C@@H](N)Cc1ccccc1)C(=O)N[C@@H](CCC(=O)O)C(=O)N[C@@H](CCCN=C(N)N)C(=O)N[C@H](C(=O)N[C@H](C(=O)NCC(=O)N[C@@H](Cc1c[nH]c2ccccc12)C(=O)N[C@@H](CC(C)C)C(=O)NCC(=O)N[C@@H](CCCCN)C(=O)N[C@H](C(=O)N[C@@H](Cc1ccccc1)C(N)=O)C(C)C)C(C)C)C(C)C [FLREFHKWIERVVGWLGKVF]
MIC [48]: 21.3 µM (≈ 54.3 µg/mL) | MIC [16]: 32 µM (≈ 81.5 µg/mL) | MIC [49]: ≥ 256 µM | MIC [8]: ≥ 32 µM
